Test results: ChEMBL document CHEMBL3885861, “Open TG-GATES”

Organism: Rattus norvegicus
Assay: Open TG-GATES - Regimen: Daily Repeat
Assay type: toxicity, organism-based, Sprague-Dawley
Design: regimen Daily Repeat, gender Male, age 6 weeks
Conditions: in vivo, po, 50 mg/kg, route gavage, dose level Middle; for APTT / Bas / Eos / Fbg / Hb / Ht / Lym / MCHC / MCV / Mono / Neu / PT / Plat / RBC / Ret / WBC: tissue Blood; for KIDNEY_L / KIDNEY_R / KIDNEY_TOTAL: tissue Kidney; for LIVER: tissue Liver; for ALP / ALT / AST / BUN / CRE / Ca / Cl / DBIL / GLC / IP / K / LDH / Na / PL / RALB / TBIL / TC / TG / TP / gamma-GTP: tissue Plasma

## C1CCC(C(CC2CCCCN2)C2CCCCC2)CC1 (centres undefined) [PERHEXILINE]
72 h, time 3 day
  TERMINAL_BW: 222.3 g
  APTT: 19.9 s
  Bas: 0%
  Eos: 1%
  Fbg: 339.8 mg/dL
  Hb: 13.5 g/dL
  Ht: 40.4%
  Lym: 72.2%
  MCHC: 33.4%
  MCV: 62.8 fL
  Mono: 2.2%
  Neu: 23.2%
  PT: 16.5 s
  Plat: 125.7 x10_4/uL
  RBC: 643.2 x10_4/ul
  Ret: 6.1%
  WBC: 117.4 x10_2/uL
  KIDNEY_L: 1 g
  KIDNEY_R: 1 g
  KIDNEY_TOTAL: 2.1 g
  LIVER: 10.7 g
  ALP: 1647.4 IU/L
  ALT: 40 IU/L
  AST: 70.2 IU/L
  BUN: 13.6 mg/dL
  CRE: 0.1 mg/dL
  Ca: 10.8 mg/dL
  Cl: 107 meq/L
  DBIL: 0 mg/dL
  GLC: 184.8 mg/dL
  IP: 7.6 mg/dL
  K: 4.1 meq/L
  LDH: 241.2 IU/L
  Na: 141.8 meq/L
  PL: 146.8 mg/dL
  RALB: 3 g/dL
  TBIL: 0.008 mg/dL
  TC: 72.8 mg/dL
  TG: 125 mg/dL
  TP: 5.6 g/dL
  gamma-GTP: 0.8 IU/L
[…], time 7 day
  TERMINAL_BW: 248.7 g
  APTT: 22.2 s
  Bas: 0%
  Eos: 0.6%
  Fbg: 314 mg/dL
  Hb: 14.1 g/dL
  Ht: 41.6%
  Lym: 79.8%
  MCHC: 33.9%
  MCV: 62.6 fL
  Mono: 1.6%
  Neu: 16.6%
  PT: 15.8 s
  Plat: 113.7 x10_4/uL
  RBC: 666.4 x10_4/ul
  Ret: 4.7%
  WBC: 85.4 x10_2/uL
  KIDNEY_L: 1 g
  KIDNEY_R: 1 g
  KIDNEY_TOTAL: 2.1 g
  LIVER: 11.3 g
  ALP: 1686.4 IU/L
  ALT: 38.8 IU/L
  AST: 67 IU/L
  BUN: 18 mg/dL
  CRE: 0.2 mg/dL
  Ca: 10.5 mg/dL
  Cl: 106.2 meq/L
  DBIL: 0 mg/dL
  GLC: 202 mg/dL
  IP: 7.3 mg/dL
  K: 4.1 meq/L
  LDH: 192 IU/L
  Na: 142.8 meq/L
  PL: 166.2 mg/dL
  RALB: 3.1 g/dL
  TBIL: 0.004 mg/dL
  TC: 78.4 mg/dL
  TG: 181 mg/dL
  TP: 5.8 g/dL
  gamma-GTP: 1 IU/L
[…], time 14 day
  TERMINAL_BW: 302.3 g
  APTT: 23.1 s
  Bas: 0%
  Eos: 0.4%
  Fbg: 303 mg/dL
  Hb: 14 g/dL
  Ht: 40.8%
  Lym: 82.2%
  MCHC: 34.3%
  MCV: 61.7 fL
  Mono: 1.4%
  Neu: 15%
  PT: 15.8 s
  Plat: 118.8 x10_4/uL
  RBC: 662.8 x10_4/ul
  Ret: 5.3%
  WBC: 116.6 x10_2/uL
  KIDNEY_L: 1.2 g
  KIDNEY_R: 1.2 g
  KIDNEY_TOTAL: 2.3 g
  LIVER: 12.9 g
  ALP: 1470.4 IU/L
  ALT: 42.2 IU/L
  AST: 76.6 IU/L
  BUN: 18.6 mg/dL
  CRE: 0.2 mg/dL
  Ca: 10.7 mg/dL
  Cl: 107.4 meq/L
  DBIL: 0 mg/dL
  GLC: 209.8 mg/dL
  IP: 6.5 mg/dL
  K: 4.2 meq/L
  LDH: 231.4 IU/L
  Na: 143.2 meq/L
  PL: 155.2 mg/dL
  RALB: 3 g/dL
  TBIL: 0.002 mg/dL
  TC: 72.2 mg/dL
  TG: 178.6 mg/dL
  TP: 5.8 g/dL
  gamma-GTP: 1.6 IU/L
[…], time 28 day
  TERMINAL_BW: 361.8 g
  APTT: 22.2 s
  Bas: 0%
  Eos: 0.6%
  Fbg: 314 mg/dL
  Hb: 14.1 g/dL
  Ht: 41.6%
  Lym: 79.8%
  MCHC: 33.9%
  MCV: 62.6 fL
  Mono: 1.6%
  Neu: 16.6%
  PT: 15.8 s
  Plat: 113.7 x10_4/uL
  RBC: 666.4 x10_4/ul
  Ret: 4.7%
  WBC: 85.4 x10_2/uL
  KIDNEY_L: 1.3 g
  KIDNEY_R: 1.3 g
  KIDNEY_TOTAL: 2.5 g
  LIVER: 15 g
  ALP: 1171.8 IU/L
  ALT: 39.8 IU/L
  AST: 67.2 IU/L
  BUN: 18.8 mg/dL
  CRE: 0.2 mg/dL
  Ca: 10.4 mg/dL
  Cl: 107 meq/L
  DBIL: 0 mg/dL
  GLC: 209.2 mg/dL
  IP: 6.6 mg/dL
  K: 4 meq/L
  LDH: 186.8 IU/L
  Na: 143 meq/L
  PL: 156.4 mg/dL
  RALB: 3.1 g/dL
  TBIL: 0.004 mg/dL
  TC: 71.6 mg/dL
  TG: 157.4 mg/dL
  TP: 6.1 g/dL
  gamma-GTP: 1.4 IU/L
